Molecules are shown by their SMILES.

In one assay the target is α4β7 integrin (Homo sapiens (Human), UniProt P13612+P26010). As to the kind of experiment: α4β7 Integrin Cell Capture Assay. It counts as cell-based. Conditions: RPMI8866 cells captured on MadCAM-1 extracellular domain-coated plate.
Sequence of α4β7 integrin (P13612 34-1032): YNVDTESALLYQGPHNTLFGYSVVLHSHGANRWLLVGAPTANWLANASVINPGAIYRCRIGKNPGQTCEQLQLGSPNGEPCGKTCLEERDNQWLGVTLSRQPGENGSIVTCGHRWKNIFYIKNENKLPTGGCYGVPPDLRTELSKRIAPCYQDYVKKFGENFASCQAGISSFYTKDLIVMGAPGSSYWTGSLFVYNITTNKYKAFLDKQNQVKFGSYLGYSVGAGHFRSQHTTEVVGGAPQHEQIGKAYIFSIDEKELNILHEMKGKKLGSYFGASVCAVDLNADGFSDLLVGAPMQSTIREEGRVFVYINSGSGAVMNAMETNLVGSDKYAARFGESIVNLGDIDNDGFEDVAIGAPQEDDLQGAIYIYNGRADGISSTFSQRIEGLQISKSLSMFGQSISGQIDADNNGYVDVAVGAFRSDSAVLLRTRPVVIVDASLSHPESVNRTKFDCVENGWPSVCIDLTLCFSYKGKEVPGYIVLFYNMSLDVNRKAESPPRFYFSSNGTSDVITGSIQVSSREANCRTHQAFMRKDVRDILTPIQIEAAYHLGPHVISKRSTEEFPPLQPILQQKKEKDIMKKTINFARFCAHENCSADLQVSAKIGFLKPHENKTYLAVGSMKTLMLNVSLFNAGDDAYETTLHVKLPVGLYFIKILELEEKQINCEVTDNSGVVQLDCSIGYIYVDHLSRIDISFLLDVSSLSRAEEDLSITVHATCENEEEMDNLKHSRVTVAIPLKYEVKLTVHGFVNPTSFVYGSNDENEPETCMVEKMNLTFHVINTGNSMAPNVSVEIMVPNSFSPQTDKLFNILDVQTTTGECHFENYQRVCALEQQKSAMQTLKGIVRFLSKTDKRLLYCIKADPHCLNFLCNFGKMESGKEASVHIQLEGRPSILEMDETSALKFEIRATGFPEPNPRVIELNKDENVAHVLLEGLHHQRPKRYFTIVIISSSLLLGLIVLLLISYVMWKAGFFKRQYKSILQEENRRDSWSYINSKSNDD
Sequence of α4β7 integrin (P26010 20-798): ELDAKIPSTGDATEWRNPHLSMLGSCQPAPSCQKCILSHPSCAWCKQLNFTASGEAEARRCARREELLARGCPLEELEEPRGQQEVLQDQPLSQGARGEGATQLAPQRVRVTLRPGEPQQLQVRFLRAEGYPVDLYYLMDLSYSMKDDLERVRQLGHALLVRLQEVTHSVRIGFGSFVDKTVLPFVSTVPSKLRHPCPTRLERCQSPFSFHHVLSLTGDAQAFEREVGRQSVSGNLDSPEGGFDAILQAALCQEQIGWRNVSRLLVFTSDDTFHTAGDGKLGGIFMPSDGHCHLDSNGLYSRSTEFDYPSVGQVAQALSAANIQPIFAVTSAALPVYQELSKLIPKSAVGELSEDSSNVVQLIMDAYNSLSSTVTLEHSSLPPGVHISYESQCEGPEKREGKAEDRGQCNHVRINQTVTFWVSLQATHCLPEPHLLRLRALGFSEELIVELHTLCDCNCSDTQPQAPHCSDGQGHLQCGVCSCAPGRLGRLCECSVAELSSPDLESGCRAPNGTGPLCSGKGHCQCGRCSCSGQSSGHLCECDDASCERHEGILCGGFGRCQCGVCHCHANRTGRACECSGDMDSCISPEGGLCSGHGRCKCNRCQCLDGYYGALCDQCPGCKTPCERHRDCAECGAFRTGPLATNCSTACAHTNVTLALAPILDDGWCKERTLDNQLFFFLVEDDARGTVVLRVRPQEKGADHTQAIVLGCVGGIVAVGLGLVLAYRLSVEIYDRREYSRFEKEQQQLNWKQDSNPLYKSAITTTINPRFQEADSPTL
On to `Cc1cc(C(F)(F)F)c(-c2ccc(C[C@H](NC(=O)c3c(F)cc(N4CCCOCC4)cc3F)C(=O)O)c3cccnc23)c(=O)n1C` [Example 441], for which the half-maximal effective concentration (EC50) amounted to 0.412 nM. On the same count and under the same terms, the value for `Cc1cc(N2CCCC[C@@H]2C(F)(F)F)cc(F)c1C(=O)N[C@@H](Cc1ccc(-c2nc(C)c(C)n(C)c2=O)c2ncccc12)C(=O)O` [Example 453] was 0.677 nM; that for `Cn1c(=O)n(-c2ccc(C[C@H](NC(=O)c3c(F)cc(N4CCOC[C@@H]4C(F)(F)F)cc3F)C(=O)O)c3cccnc23)c(=O)c2cnccc21` [Example 473] was 0.196 nM. On to `Cc1cc(N2CCOC[C@@H]2C(F)(F)F)cc(F)c1C(=O)N[C@@H](Cc1cc(F)c(-n2c(=O)c3ccncc3n(C)c2=O)c2ncccc12)C(=O)O` [Example 433], for which the EC50 turned out to be 0.076 nM. The molecule `Cc1cc(N2CCOC[C@@H]2C(F)(F)F)cc(F)c1C(=O)N[C@@H](Cc1ccc(-c2c(C(F)(F)F)nc(C)n(C)c2=O)c2ncccc12)C(=O)O` [Example 458] yielded a concentration giving a half-maximal response (EC50) of 0.09 nM. In the case of `Cc1nc(C)n(C)c(=O)c1-c1ccc(C[C@H](NC(=O)c2c(F)cc(N3CCOC[C@@H]3C(F)(F)F)cc2F)C(=O)O)c2cccnc12` [Example 440], a half-maximal effect (EC50) was put at 0.25 nM. As for `COc1cc2c(=O)n(-c3ccc(C[C@H](NC(=O)c4c(F)cc(N5CCOC[C@@H]5C(F)(F)F)cc4F)C(=O)O)c4cccnc34)c(=O)n(C)c2cn1` [Example 428], the EC50 came to 0.18 nM. The molecule `Cc1cc(-c2nccn2CC(F)(F)F)cc(F)c1C(=O)N[C@@H](Cc1ccc(-n2c(=O)c3ccncc3n(C)c2=O)c2ncccc12)C(=O)O` [Example 419] registered a 50% effective concentration (EC50) of 0.369 nM. With `Cc1cc(N2CCOC[C@@H]2C(F)(F)F)cc(F)c1C(=O)N[C@@H](Cc1ccc(-n2c(=O)c3c(n(C)c2=O)COCC3)c2ncccc12)C(=O)O` [Example 411], the EC50 is 0.06 nM. The same measure, in the same setting: the value for `Cc1cc(N2CCOC[C@@H]2C(F)(F)F)cc(F)c1C(=O)N[C@@H](Cc1ccc(-n2c(=O)c3c(n(C)c2=O)CCOC3)c2ncccc12)C(=O)O` [Example 412] was 0.091 nM.

Staying with this assay, now noted: Table 1; capture of α4β7 expressing RPM18866 cells on MadCAM-1 extracellular domain-coated plate.
On to `CCOCc1cc(OC)c(-c2ccc(C[C@H](NC(=O)c3c(F)cccc3F)C(=O)O)c3cc(C#N)cnc23)c(OC)c1` [Example 36, (S)-3-(3-cyano-8-(4-(ethoxymethyl)-2,6-dimethoxyphenyl)quinolin-5-yl)-2-(2,6-difluorobenzamido)propanoic acid], for which the EC50 was 21 nM. For `CS(=O)(=O)c1cc(F)ccc1-c1ccc(C[C@H](NC(=O)c2c(F)cc(NS(=O)(=O)c3ccc(-c4ccnc(F)c4)cc3)cc2F)C(=O)O)c2cccnc12` [Example 61, (S)-2-(2,6-difluoro-4-((4-(2-fluoropyridin-4-yl)phenyl)sulfonamido)benzamido)-3-(8-(4-fluoro-2-(methylsulfonyl)phenyl)quinolin-5-yl)propanoic acid], the concentration giving a half-maximal response (EC50) came out at 4.2 nM.

`Cc1noc(C)c1-c1ccc(C[C@H](NC(=O)c2c(F)cc(NS(=O)(=O)c3ccc(-c4ccnc(F)c4)cc3)cc2F)C(=O)O)c2cccnc12` [Example 55, (S)-2-(2,6-difluoro-4-((4-(2-fluoropyridin-4-yl)phenyl)sulfonamido)benzamido)-3-(8-(3,5-dimethylisoxazol-4-yl)quinolin-5-yl)propanoic acid] came in with a 50% effective concentration (EC50) of 27.4 nM. The same measure, in the same setting: next, `Cc1cc(C(F)(F)F)c(-c2ccc(C[C@H](NC(=O)c3c(F)cc(N4CCOC[C@@H]4C(F)(F)F)cc3F)C(=O)O)c3cccnc23)nc1C` [Example 94, (S)-2-(2,6-difluoro-4-((R)-3-(trifluoromethyl)morpholino)benzamido)-3-(8-(5,6-dimethyl-3-(trifluoromethyl)pyridin-2-yl)quinolin-5-yl)propanoic acid]: 0.5 nM. `N#Cc1ccccc1-c1ccc(C[C@H](NC(=O)c2c(F)cc(NS(=O)(=O)c3ccc(-c4ccnc(F)c4)cc3)cc2F)C(=O)O)c2cccnc12` [Example 59, (S)-3-(8-(2-cyanophenyl)quinolin-5-yl)-2-(2,6-difluoro-4-((4-(2-fluoropyridin-4-yl)phenyl)sulfonamido)benzamido)propanoic acid] showed an EC50 of 3.2 nM. `N#Cc1ccc(-c2ccc(C[C@H](NC(=O)c3c(F)cc(N4CCC4C(F)(F)F)cc3F)C(=O)O)c3cccnc23)c(Cl)c1` (stereo partly drawn) [Example 78, (2S)-3-(8-(2-chloro-4-cyanophenyl)quinolin-5-yl)-2-(2,6-difluoro-4-(2-(trifluoromethyl)azetidin-1-yl)benzamido)propanoic acid] came in with a half-maximal effective concentration (EC50) of 134 nM. Still for that read-out and setting: the value for `CC[C@@H](Nc1cc(F)c(C(=O)N[C@@H](Cc2ccc(-c3cc(Cl)c(C)n(C)c3=O)c3ncccc23)C(=O)O)c(F)c1)C(F)(F)F` [Example 116, (S)-3-(8-(5-chloro-1,6-dimethyl-2-oxo-1,2-dihydropyridin-3-yl)quinolin-5-yl)-2-(2,6-difluoro-4-(((R)-1,1,1-trifluorobutan-2-yl)amino)benzamido)propanoic acid] was 1.2 nM; that for `CC[C@@H](Nc1cc(F)c(C(=O)N[C@@H](Cc2ccc(-c3nc(C)ccc3OC)c3ncccc23)C(=O)O)c(F)c1)C(F)(F)F` [Example 120, (S)-2-(2,6-difluoro-4-(((R)-1,1,1-trifluorobutan-2-yl)amino)benzamido)-3-(8-(3-methoxy-6-methylpyridin-2-yl)quinolin-5-yl)propanoic acid] was 1.3 nM; that for `N#Cc1ccc(-c2ccc(C[C@H](NC(=O)c3c(F)cc(CS(=O)(=O)c4ccccc4)cc3F)C(=O)O)c3cccnc23)c(Cl)c1` [Example 49, (S)-3-(8-(2-chloro-4-cyanophenyl)quinolin-5-yl)-2-(2,6-difluoro-4-((phenylsulfonyl)methyl)benzamido)propanoic acid] was 33.7 nM. `N#CCc1ccc(-c2ccc(C[C@H](NC(=O)c3c(F)cc(NS(=O)(=O)c4ccc(-c5ccnc(F)c5)cc4)cc3F)C(=O)O)c3cccnc23)c(Cl)c1` [Example 53, (S)-3-(8-(2-chloro-4-(cyanomethyl)phenyl)quinolin-5-yl)-2-(2,6-difluoro-4-((4-(2-fluoropyridin-4-yl)phenyl)sulfonamido)benzamido)propanoic acid] registered a 50% effective concentration (EC50) of 3 nM. Still for that read-out and setting: next, `N#Cc1ccc(-c2ccc(C[C@H](NC(=O)c3c(F)cc(NS(=O)(=O)c4ccccc4)cc3F)C(=O)O)c3cccnc23)c(Cl)c1` [Example 46, (S)-3-(8-(2-chloro-4-cyanophenyl)quinolin-5-yl)-2-(2,6-difluoro-4-(phenylsulfonamido)benzamido)propanoic acid]: 20 nM. Still for that read-out and setting: the value for `COc1cc(Cl)c(Cl)cc1-c1ccc(C[C@H](NC(=O)c2c(F)cccc2F)C(=O)O)c2cccnc12` [Example 5, (S)-3-(8-(4,5-dichloro-2-methoxyphenyl)quinolin-5-yl)-2-(2,6-difluorobenzamido)propanoic acid] was 17.4 nM. Same read-out and setting: next, `CC[C@@H](Nc1cc(F)c(C(=O)N[C@@H](Cc2ccc(-c3c(C)n(C)c(=O)n(C)c3=O)c3ncccc23)C(=O)O)c(F)c1)C(F)(F)F` [Example 114, (S)-2-(2,6-difluoro-4-(((R)-1,1,1-trifluorobutan-2-yl)amino)benzamido)-3-(8-(1,3,6-trimethyl-2,4-dioxo-1,2,3,4-tetrahydropyrimidin-5-yl)quinolin-5-yl)propanoic acid]: 0.6 nM. The molecule `O=C(N[C@@H](Cc1ccc(-c2c(Cl)cc(F)cc2Cl)c2ncc(F)cc12)C(=O)O)c1c(F)cccc1F` [Example 32, (S)-3-(8-(2,6-dichloro-4-fluorophenyl)-3-fluoroquinolin-5-yl)-2-(2,6-difluorobenzamido)propanoic acid] had an EC50 of 75.9 nM.

The same assay, now with this note: Table 2; capture of α4β7 expressing RPM18866 cells on MadCAM-1 extracellular domain-coated plate.
Take `Cc1cc(C)n(C)c(=O)c1-c1ccc(C[C@H](NC(=O)c2c(F)cc(N3CCCC[C@@H]3C(F)(F)F)cc2F)C(=O)O)c2cccnc12` [Example 202]: the half-maximal effective concentration (EC50) was 1.5 nM. Still for that read-out and setting: the value for `CC[C@@H](Nc1cc(F)c(C(=O)N[C@@H](Cc2ccc(-c3nc(C)nc(C)c3C)c3ncccc23)C(=O)O)c(F)c1)C(F)(F)F` [Example 320] was 15.3 nM; that for `Cc1ccnc(-c2ccc(C[C@H](NC(=O)c3c(F)cc(N4CCOC[C@@H]4C(F)(F)F)cc3F)C(=O)O)c3cccnc23)n1` [Example 263] was 4 nM; that for `CC[C@@H](Nc1cc(F)c(C(=O)N[C@@H](Cc2ccc(-c3nc(C)c(C)c(C)c3C(F)(F)F)c3ncccc23)C(=O)O)c(F)c1)C(F)(F)F` [Example 236] was 2.6 nM.

`N#Cc1ccc(-c2ccc(C[C@H](NC(=O)c3c(F)cc(NC(=O)c4ccccc4C(F)(F)F)cc3F)C(=O)O)c3cccnc23)c(Cl)c1` [Example 337]: a half-maximal effect (EC50) was put at 26.2 nM.

Molecule `Cc1nc(-c2ccc(C[C@H](NC(=O)c3c(F)cc(N4CCOC[C@@H]4C(F)(F)F)cc3F)C(=O)O)c3cccnc23)c(=O)n(C)c1C` [Example 151] yielded an EC50 of 0.2 nM. `CCCN(c1cc(F)c(C(=O)N[C@@H](Cc2ccc(-c3c(C(F)(F)F)cc(C)n(C)c3=O)c3ncccc23)C(=O)O)c(F)c1)[C@H](CC)C(F)(F)F` [Example 339] returned a 50% effective concentration (EC50) of 0.6 nM. `C[C@@H](Nc1cc(F)c(C(=O)N[C@@H](Cc2ccc(-c3ncccc3C(F)(F)F)c3ncccc23)C(=O)O)c(F)c1)C(F)(F)F` [Example 283] came in with an EC50 of 5.7 nM. The molecule `CC[C@@H](Nc1cc(F)c(C(=O)N[C@@H](Cc2ccc(-c3cc(C(F)(F)F)cn(C)c3=O)c3ncccc23)C(=O)O)c(F)c1)C(F)(F)F` [Example 210] registered an EC50 of 1.9 nM. The molecule `CN1CCc2nc(-c3ccc(C[C@H](NC(=O)c4c(F)cc(N5CCOC[C@@H]5C(F)(F)F)cc4F)C(=O)O)c4cccnc34)ncc2C1` [Example 312] gave an EC50 of 12.5 nM.

For the molecule `Cc1nc(-c2ccc(C[C@H](NC(=O)c3c(F)cc(N4CCOC[C@H]4C(F)(F)F)cc3F)C(=O)O)c3cccnc23)c(=O)n(C)c1C` [Example 255], the EC50 turned out to be 3.4 nM.

On to `CC[C@@H](Nc1cc(F)c(C(=O)N[C@@H](Cc2ccc(-c3ncccc3N(C)C)c3ncccc23)C(=O)O)c(F)c1)C(F)(F)F` [Example 315], for which it took 13.6 nM to reach a half-maximal effect (EC50). The molecule `Cc1cc(C(F)(F)F)c(-c2ccc(C[C@H](NC(=O)c3c(F)cc(N4CC[C@H]4C(F)(F)F)cc3F)C(=O)O)c3cccnc23)c(=O)n1C` [Example 298] registered an EC50 of 7.9 nM.

The record behind these values is US11116760B2 (Gilead Sciences, Inc., priority 2018, dated 2021).
